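Step 1: Grow cells in 96-well plates. Step 2: Expose to compound for 48 hours at 5 concentrations. Step 3: Interpolate endpoints linearly; if unreached, use highest concentration. At the GI50, growth is halved. TGI: concentration producing complete growth inhibition.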
Key:
Test in all cases: NCI tumour cell line growth inhibition, 48 h
MDA-MB-435 = system: MDA-MB-435
NCI/ADR-RES ovarian = system: NCI/ADR-RES ovarian
IGROV1 ovarian = system: IGROV1 ovarian
KM12 colon = system: KM12 colon
RPMI-8226 leukemia = system: RPMI-8226 leukemia
HOP-62 NSCLC = system: HOP-62 NSCLC
NCI-H23 lung = system: NCI-H23 lung
HCT-116 colon = system: HCT-116 colon
NCI-H226 lung = system: NCI-H226 lung
SK-MEL-28 melanoma = system: SK-MEL-28 melanoma
SW-620 colon = system: SW-620 colon
M14 melanoma = system: M14 melanoma
TK-10 renal = system: TK-10 renal
OVCAR-5 ovarian = system: OVCAR-5 ovarian
UO-31 renal = system: UO-31 renal
ACHN renal = system: ACHN renal
SNB-19 CNS = system: SNB-19 CNS
CCRF-CEM leukemia = system: CCRF-CEM leukemia
DU-145 prostate = system: DU-145 prostate
OVCAR-4 ovarian = system: OVCAR-4 ovarian
HCC-2998 colon = system: HCC-2998 colon
MALME-3M melanoma = system: MALME-3M melanoma
OVCAR-8 ovarian = system: OVCAR-8 ovarian
SK-MEL-2 melanoma = system: SK-MEL-2 melanoma
HT29 colon = system: HT29 colon
NCI-H460 lung = system: NCI-H460 lung
A549 NSCLC = system: A549 NSCLC
HL-60(TB) leukemia = system: HL-60(TB) leukemia
PC-3 prostate = system: PC-3 prostate
K-562 leukemia = system: K-562 leukemia
HCT-15 colon = system: HCT-15 colon
HOP-92 NSCLC = system: HOP-92 NSCLC
SF-268 CNS = system: SF-268 CNS
BT-549 breast = system: BT-549 breast
SK-OV-3 ovarian = system: SK-OV-3 ovarian
SNB-75 CNS = system: SNB-75 CNS
MCF7 breast = system: MCF7 breast
SR leukemia = system: SR leukemia
T-47D breast = system: T-47D breast
SK-MEL-5 melanoma = system: SK-MEL-5 melanoma
CAKI-1 renal = system: CAKI-1 renal
MDA-MB-231 breast = system: MDA-MB-231 breast
A498 renal = system: A498 renal
LOX IMVI melanoma = system: LOX IMVI melanoma
UACC-62 melanoma = system: UACC-62 melanoma
UACC-257 melanoma = system: UACC-257 melanoma
SN12C renal = system: SN12C renal
NCI-H522 lung = system: NCI-H522 lung
HS 578T breast = system: HS 578T breast
MOLT-4 leukemia = system: MOLT-4 leukemia
786-0 renal = system: 786-0 renal
RXF 393 renal = system: RXF 393 renal
U251 CNS = system: U251 CNS
COLO 205 colon = system: COLO 205 colon
SF-539 CNS = system: SF-539 CNS
SF-295 CNS = system: SF-295 CNS

Which results are given for `Nc1ccc(-c2nnc(SCc3ccc(O)c4ncccc34)o2)cc1`?
GI50 (MDA-MB-435): 0.0454 µM; TGI (MDA-MB-435): > 100 µM; GI50 (NCI/ADR-RES ovarian): 0.0439 µM; TGI (NCI/ADR-RES ovarian): > 100 µM; GI50 (IGROV1 ovarian): 0.0846 µM; TGI (IGROV1 ovarian): > 41.9 µM; GI50 (KM12 colon): 0.128 µM; TGI (KM12 colon): > 100 µM; GI50 (RPMI-8226 leukemia): 0.0461 µM; TGI (RPMI-8226 leukemia): > 100 µM; GI50 (HOP-62 NSCLC): 0.0815 µM; TGI (HOP-62 NSCLC): 7.62 µM; GI50 (NCI-H23 lung): 0.0492 µM; TGI (NCI-H23 lung): > 26.9 µM; GI50 (HCT-116 colon): 0.0379 µM; TGI (HCT-116 colon): 28.8 µM; GI50 (NCI-H226 lung): 0.441 µM; TGI (NCI-H226 lung): > 100 µM; GI50 (SK-MEL-28 melanoma): 0.139 µM; TGI (SK-MEL-28 melanoma): > 100 µM; GI50 (SW-620 colon): 0.0618 µM; TGI (SW-620 colon): > 100 µM; GI50 (M14 melanoma): 0.0604 µM; TGI (M14 melanoma): 2.81 µM; GI50 (TK-10 renal): 0.132 µM; GI50 (OVCAR-5 ovarian): 0.498 µM; TGI (OVCAR-5 ovarian): > 100 µM; GI50 (UO-31 renal): 0.0619 µM; TGI (UO-31 renal): 1.91 µM; GI50 (ACHN renal): 0.0726 µM; TGI (ACHN renal): > 31.9 µM; GI50 (SNB-19 CNS): 0.0438 µM; TGI (SNB-19 CNS): > 51.8 µM; GI50 (CCRF-CEM leukemia): 0.0617 µM; TGI (CCRF-CEM leukemia): > 100 µM; GI50 (DU-145 prostate): 0.055 µM; TGI (DU-145 prostate): > 38.5 µM; GI50 (OVCAR-4 ovarian): 0.259 µM; TGI (OVCAR-4 ovarian): > 100 µM; GI50 (HCC-2998 colon): 0.177 µM; TGI (HCC-2998 colon): > 100 µM; GI50 (MALME-3M melanoma): 0.0927 µM; TGI (MALME-3M melanoma): 31.9 µM; GI50 (OVCAR-8 ovarian): 0.0418 µM; TGI (OVCAR-8 ovarian): > 100 µM; GI50 (SK-MEL-2 melanoma): 0.0792 µM; TGI (SK-MEL-2 melanoma): 2.73 µM; GI50 (HT29 colon): 0.485 µM; TGI (HT29 colon): > 100 µM; GI50 (NCI-H460 lung): 0.0367 µM; GI50 (A549 NSCLC): 0.0417 µM; TGI (A549 NSCLC): > 100 µM; GI50 (HL-60(TB) leukemia): 0.0987 µM; TGI (HL-60(TB) leukemia): 1.22 µM; GI50 (PC-3 prostate): 0.0502 µM; TGI (PC-3 prostate): > 100 µM; GI50 (K-562 leukemia): 0.0442 µM; TGI (K-562 leukemia): > 100 µM; GI50 (HCT-15 colon): 0.0382 µM; TGI (HCT-15 colon): > 100 µM; GI50 (HOP-92 NSCLC): 0.0238 µM; TGI (HOP-92 NSCLC): 0.0724 µM; GI50 (SF-268 CNS): 0.0641 µM; TGI (SF-268 CNS): > 75.3 µM; GI50 (BT-549 breast): 0.0558 µM; TGI (BT-549 breast): > 100 µM; GI50 (SK-OV-3 ovarian): 0.0807 µM; TGI (SK-OV-3 ovarian): 0.577 µM; GI50 (SNB-75 CNS): 0.112 µM; TGI (SNB-75 CNS): 12.9 µM; GI50 (MCF7 breast): 0.0387 µM; TGI (MCF7 breast): > 100 µM; GI50 (SR leukemia): 0.0891 µM; TGI (SR leukemia): > 100 µM; GI50 (T-47D breast): 0.085 µM; TGI (T-47D breast): > 100 µM; GI50 (SK-MEL-5 melanoma): 0.0491 µM; GI50 (CAKI-1 renal): 0.179 µM; TGI (CAKI-1 renal): > 68.1 µM; GI50 (MDA-MB-231 breast): 0.154 µM; TGI (MDA-MB-231 breast): 22.6 µM; GI50 (A498 renal): 0.317 µM; TGI (A498 renal): 3.3 µM; GI50 (LOX IMVI melanoma): 0.0305 µM; TGI (LOX IMVI melanoma): > 33.7 µM; GI50 (UACC-62 melanoma): 0.249 µM; TGI (UACC-62 melanoma): 2.28 µM; GI50 (UACC-257 melanoma): 0.207 µM; TGI (UACC-257 melanoma): 0.91 µM; GI50 (SN12C renal): 0.0392 µM; TGI (SN12C renal): > 100 µM; GI50 (NCI-H522 lung): 0.044 µM; TGI (NCI-H522 lung): > 50.7 µM; GI50 (HS 578T breast): 0.0509 µM; TGI (HS 578T breast): > 100 µM; GI50 (MOLT-4 leukemia): 0.124 µM; TGI (MOLT-4 leukemia): > 100 µM; GI50 (786-0 renal): 0.224 µM; TGI (786-0 renal): 16.7 µM; GI50 (RXF 393 renal): 0.0906 µM; TGI (RXF 393 renal): > 85.9 µM; GI50 (U251 CNS): 0.0354 µM; TGI (U251 CNS): 11.8 µM; GI50 (COLO 205 colon): 0.442 µM; TGI (COLO 205 colon): 2.45 µM; GI50 (SF-539 CNS): 0.0642 µM; TGI (SF-539 CNS): 8.75 µM; GI50 (SF-295 CNS): 0.0412 µM; TGI (SF-295 CNS): > 39 µM

Reference: PubChem BioAssay (NCI)
